Legend:
[1] = Cytotoxicity against human HepG2 cells assessed as cell growth inhibition incubated for 3 days by CellTiter-Glo reagent-based luminescence assay; type: toxicity
[2] = tested on: Mycobacterium tuberculosis; assay: Antibacterial activity against Mycobacterium tuberculosis LepB-UE strain under expressing signal peptidase LepB assessed growth inhibition incubated for 5 days by fluorescence spectrophotometric assay; type: functional; conditions: 120 h, time 5 day
[3] = tested on: Mycobacterium tuberculosis; assay: Antibacterial activity against wild type Mycobacterium tuberculosis H37Rv-LP DREAM8 strain expressing codon-optimized DsRed assessed growth inhibition incubated for 5 days by fluorescence spectrophotometric assay; type: functional; conditions: H37Rv-LP DREAM8, 120 h, time 5 day
[4] = Selectivity index, ratio of IC50 for cytotoxicity against human HepG2 cells to IC90 for antibacterial activity against wild type Mycobacterium tuberculosis H37Rv-LP DREAM8 strain expressing codon-optimized DsRed; type: toxicity, cell-based

COc1ccc(-c2cc(C(F)(F)F)c3c(N)c(C(=O)NC(C)c4ccccc4)sc3n2)cn1 (stereo not given)
IC50 at 3 days [1]: 19 µM | IC90 [2]: 0.41 µM | IC90 [3]: 1.2 µM

COc1ccc(-c2cc(C(F)(F)F)c3c(N)c(C(=O)N4CCC4)sc3n2)cc1
IC50 at 3 days [1]: 62 µM | IC90 [3]: > 100 µM | selectivity ratio [4]: < 1

COc1ccc(-c2cc(C(F)(F)F)c3c(N)c(C(=O)N4CC(OC)C4)sc3n2)cc1
IC50 at 3 days [1]: 50 µM | IC90 [3]: > 100 µM | selectivity ratio [4]: < 1

COc1ccc(-c2cc(C(F)(F)F)c3c(N)c(C(=O)Nc4cc(C)ccc4C)sc3n2)cc1
IC50 at 3 days [1]: 23 µM | IC90 [3]: > 100 µM | selectivity ratio [4]: < 1

COc1ccc(-c2cc(C(F)(F)F)c3c(N)c(C(=O)NCc4ccccc4)sc3n2)cc1
IC50 at 3 days [1]: 88 µM | IC90 [3]: > 100 µM | selectivity ratio [4]: < 1

— ChEMBL document CHEMBL6153157, “Novel 3-Aminothieno[2,3-b]pyridine-2-carboxamides with Activity against Mycobacterium tuberculosis” (ACS Med Chem Lett, 2025)
